The record followed here is PMC8876255 (Bioorganic & medicinal chemistry letters, 2021).

In test [1] the test system is MDA-MB-231 cells. Put plainly: Cancer cell viability assay. It counts as cell-based.
The subject of test [2] is UPR markers sXbp1, HSPA5A (BiP), DDIT3 (CHOP) in MDA-MB-231 cells. Briefly: UPR / ER stress gene induction by qPCR. It counts as cell-based. The conditions noted are these: MDA-MB-231, 6 h, 2 times the EC50, qPCR.

As to `O=C(CC12CC3CC(CC(C3)C1)C2)NCCCCO` [Compound 4], the “inhibitory effect on cell growth” value in test [1] (MDA-MB-231 viability assay, negative control) was “negligible inhibitory effects on cell growth”. Besides, in test [1] (addition of 20–60 μM 4 to MDA-MB-231 cells treated with JMS-053), the “additive or synergistic effect with JMS-053 on viability” value is “failed to detect any changes in viability”. `N=C1C(=O)NC(=O)c2cc(-c3ccc(OCCCCNC(=O)CC45CC6CC(CC(C6)C4)C5)cc3)sc21` [Compound 7a]: in test [2], the “accumulation of spliced Xbp1 transcription factor” value is listed as “moderate accumulation” and the “expression of pro-apoptotic gene CHOP (DDIT3)” value is given as “strongly enhanced expression”. On to `O=C(CC12CC3CC(CC(C3)C1)C2)NCCCCOc1ccc(-c2cc3c(s2)C(=O)C(=O)NC3=O)cc1` [Compound 7b], for which the “accumulation of spliced Xbp1 transcription factor” value in test [2] is on record as “significantly lower accumulation”.
